The source of these data is ChEMBL document CHEMBL5036347, “Design of the naphthyl-diarylpyrimidines as potent non-nucleoside reverse transcriptase inhibitors (NNRTIs) via structure-based extension into the entrance channel” (Eur J Med Chem, 2021).

Data set [1] relates to Human immunodeficiency virus 1. The data set is described as follows: Antiviral activity against HIV1 harboring reverse transcriptase K103N/Y181C double mutant infected in human MT4 cells assessed as protection against virus-induced cytopathic effect incubated for 5 days by MTT assay. It counts as functional, organism-based. The conditions noted are these: Human immunodeficiency virus 1, MT4, 120 h. In general terms: Damage to the host cells serves as the signal in cytopathic effect assays.

Data set [2] relates to Human immunodeficiency virus 1. The data set is described as follows: Antiviral activity against HIV1 harboring reverse transcriptase F227L/V106A mutant infected in human MT4 cells assessed as protection against virus-induced cytopathic effect incubated for 5 days by MTT assay. The data set is classed as functional, organism-based. As to conditions: Human immunodeficiency virus 1, MT4, 120 h.

A short description of data set [3]: Selectivity index, ratio of CC50 for cytotoxicity against human MT4 cells to EC50 of Anti-HIV activity against HIV-1 IIIB infected in human MT4. It counts as toxicity, cell-based. The conditions noted are these: read-out: Selectivity Index.
Data set [4] is described as follows: Resistance fold, ratio of EC50 for HIV1 harboring reverse transcriptase L100I mutant […] to EC50 for wild type HIV1 […]. It counts as functional.
Data set [5] has as its system Human immunodeficiency virus 1. The data set is described as follows: Antiviral activity against HIV1 harboring reverse transcriptase E138K mutant infected in human MT4 cells assessed as protection against virus-induced cytopathic effect incubated for 5 days by MTT assay. As to conditions: Human immunodeficiency virus 1, MT4, 120 h. It counts as functional, organism-based.

The subject of data set [6] is Human immunodeficiency virus 1. The data set is described as follows: Antiviral activity against HIV1 harboring reverse transcriptase Y181C mutant infected in human MT4 cells assessed as protection against virus-induced cytopathic effect incubated for 5 days by MTT assay. It counts as functional, organism-based. The conditions noted are these: Human immunodeficiency virus 1, MT4, 120 h.

Data set [7] is described as follows: Resistance fold, ratio of EC50 for HIV1 harboring reverse transcriptase K103N/Y181C double mutant […] to EC50 for wild type HIV1 […]. The data set is classed as functional.
Data set [8] concerns Human immunodeficiency virus 1. The data set is described as follows: Antiviral activity against HIV1 harboring reverse transcriptase Y188L mutant infected in human MT4 cells assessed as protection against virus-induced cytopathic effect incubated for 5 days by MTT assay. The data set is classed as functional, organism-based. The conditions noted are these: Human immunodeficiency virus 1, MT4, 120 h.

Data set [9] has as its target Human immunodeficiency virus type 1 reverse transcriptase (Human immunodeficiency virus 1, UniProt Q72547). The data set is described as follows: Inhibition of wild type HIV1 reverse transcriptase using oligo(dT)16 as primer measured after 40 mins by picogreen-dye based spectrofluorimetric analysis.
The nature of data set [10]: Resistance fold, ratio of EC50 for HIV1 harboring reverse transcriptase Y181C mutant […] to EC50 for wild type HIV1 […]. It counts as functional.
The test system of another data set is MT4. The data set is described as follows: (§1) Cytotoxicity against human MT4 cells assessed as reduction in cell viability incubated for 5 days by MTT assay. It counts as cell-based. The conditions noted are these: Homo sapiens, MT4, 120 h.
Data set [11] can be described thus: Resistance fold, ratio of EC50 for HIV1 harboring reverse transcriptase F227L/V106A double mutant […] to EC50 for wild type HIV1 […]. It counts as functional.
Data set [12] has as its system Human immunodeficiency virus 1. The data set is described as follows: Antiviral activity against HIV1 harboring reverse transcriptase L100I mutant infected in human MT4 cells assessed as protection against virus-induced cytopathic effect incubated for 5 days by MTT assay. It counts as functional, organism-based. The conditions noted are these: Human immunodeficiency virus 1, MT4, 120 h.

A short description of data set [13]: Resistance fold, ratio of EC50 for HIV1 harboring reverse transcriptase Y188L mutant […] to EC50 for wild type HIV1 […]. It counts as functional.
Data set [14] relates to Human immunodeficiency virus 2. The data set is described as follows: Anti-HIV activity against HIV2 ROD infected in human MT4 cells assessed as reduction in virus-induced cytopathic effect incubated for 5 days by MTT assay. It counts as functional, organism-based. As to conditions: Human immunodeficiency virus 2, ROD, MT4, 120 h.
Data set [15] in a line: Resistance fold, ratio of EC50 for HIV1 harboring reverse transcriptase E138K mutant […] to EC50 for wild type HIV1 […]. The data set is classed as functional.
The test system of data set [16] is Human immunodeficiency virus 1. The data set is described as follows: Antiviral activity against HIV1 harboring reverse transcriptase K103N mutant infected in human MT4 cells assessed as protection against virus-induced cytopathic effect incubated for 5 days by MTT assay. It counts as functional, organism-based. As to conditions: Human immunodeficiency virus 1, MT4, 120 h.

Data set [17] relates to Human immunodeficiency virus 1. The data set is described as follows: Anti-HIV activity against HIV-1 IIIB infected in human MT4 cells assessed as reduction in virus-induced cytopathic effect incubated for 5 days by MTT assay. As to conditions: Human immunodeficiency virus 1, IIIB, MT4, 120 h. The data set is classed as functional, organism-based.
A short description of data set [18]: Resistance fold, ratio of EC50 for HIV1 harboring reverse transcriptase K103N mutant […] to EC50 for wild type HIV1 […]. It counts as functional.
The target in data set [19] is Human immunodeficiency virus type 1 reverse transcriptase (Human immunodeficiency virus 1, UniProt Q72547, K103N). The data set is described as follows: Inhibition of HIV1 reverse transcriptase K103N mutant using oligo(dT)16 as primer measured after 40 mins by picogreen-dye based spectrofluorimetric analysis.
Data set [20] can be described thus: Water solubility of compound at pH 7 at 0.1 to 10 mg by HPLC-UV analysis. The data set is classed as physicochemical. The conditions noted are these: dose 0.1-10 mg.
In data set [21] the target is Human immunodeficiency virus type 1 reverse transcriptase (Human immunodeficiency virus 1, UniProt Q72547, L100I). The data set is described as follows: Inhibition of HIV1 reverse transcriptase L100I mutant using oligo(dT)16 as primer measured after 40 mins by picogreen-dye based spectrofluorimetric analysis.
The target in data set [22] is Human immunodeficiency virus type 1 reverse transcriptase (Human immunodeficiency virus 1, UniProt Q72547, F227L/V106A). The data set is described as follows: Inhibition of HIV1 reverse transcriptase F227L/V106A double mutant using oligo(dT)16 as primer measured after 40 mins by picogreen-dye based spectrofluorimetric analysis.
The target in data set [23] is Human immunodeficiency virus type 1 reverse transcriptase (Human immunodeficiency virus 1, UniProt Q72547, Y188L). The data set is described as follows: Inhibition of HIV1 reverse transcriptase Y188L mutant using oligo(dT)16 as primer measured after 40 mins by picogreen-dye based spectrofluorimetric analysis.
Data set [24] in a line: as §1. The data set is classed as cell-based. As to conditions: human, MT4 cells; time 5 day.
Data set [25] has as its target Human immunodeficiency virus type 1 reverse transcriptase (Human immunodeficiency virus 1, UniProt Q72547, E138K). The data set is described as follows: Inhibition of HIV1 reverse transcriptase E138K mutant using oligo(dT)16 as primer measured after 40 mins by picogreen-dye based spectrofluorimetric analysis.
In data set [26] the target is Human immunodeficiency virus type 1 reverse transcriptase (Human immunodeficiency virus 1, UniProt Q72547, Y181C). The data set is described as follows: Inhibition of HIV1 reverse transcriptase Y181C mutant using oligo(dT)16 as primer measured after 40 mins by picogreen-dye based spectrofluorimetric analysis.
Data set [27] in a line: Water solubility of compound at pH 7.4 at 0.1 to 10 mg by HPLC-UV analysis. As to conditions: dose 0.1-10 mg. It counts as physicochemical.
For data set [28], the target named is Human immunodeficiency virus type 1 reverse transcriptase (Human immunodeficiency virus 1, UniProt Q72547, K103N/Y181C). The data set is described as follows: Inhibition of HIV1 reverse transcriptase K103N/Y181C double mutant using oligo(dT)16 as primer measured after 40 mins by picogreen-dye based spectrofluorimetric analysis.
Data set [29] can be described thus: Water solubility of compound at pH 2 at 0.1 to 10 mg by HPLC-UV analysis. It counts as physicochemical. As to conditions: dose 0.1-10 mg.

Converted amounts (≈) assume the structure as drawn.

Broadly, the EC50 is the concentration needed to bring the measured effect to its halfway point. By IC50 is commonly meant the concentration needed to halve the response being measured. Take `CCC(C)CNc1cc(Oc2c(OC)cc3cc(C#N)ccc3c2OC)nc(Nc2ccc(C#N)cc2)n1` (stereo not drawn): the EC50 in data set [1] was 14.9 µM; in [2] it was above 1000 µM; in [5], 0.28 µM; in [6] it was 0.68 µM; in data set [8], 6.14 µM; in data set [12], 2.48 µM. The EC50 in [14] is above 1000 µM; in data set [16], 0.06 µM; in data set [17] it was 0.069 µM. Further, the selectivity ratio in data set [3] was above 3550. Besides, the “Ratio EC50” value was 36 in data set [4]; 216 in data set [7]; 10 in data set [10]; above 14450 in [11]; 89 in data set [13]; 4 in data set [15]. Besides, the “Ratio EC50” value in [18] worked out at 1. Besides, the IC50 was 0.27 µM in data set [9] and above 125 µM in the data set with MT4.

The solubility is the dissolved amount per volume that the medium holds. Lower therefore signals little dissolved substance. Broadly, the CC50 is the concentration at which the toxic effect on the cells reaches its halfway point. As to `COc1cc2cc(C#N)ccc2c(OC)c1Oc1cc(N2CCC(O)C2)nc(Nc2ccc(C#N)cc2)n1` (stereo not drawn), the IC50 came to 0.24 µM in data set [19]; 0.49 µM in [21]; 0.88 µM in data set [22]; 0.1 µM in [9]; 1.06 µM in data set [23]; 0.15 µM in data set [25]. Further, the figures for the IC50 in [26] and in [28] were 0.18 µM and 0.45 µM, respectively. Further, the solubility is below 1 µg/mL in data set [20], 2 µg/mL (≈ 3.93 µM) in [27] and 1 µg/mL (≈ 1.97 µM) in data set [29]. The EC50 in [1] stood at 0.81 µM; in [2], 1.33 µM; in data set [5] it was 0.045 µM; in data set [6] it was 0.048 µM; in data set [8] it was 0.4 µM; in data set [12] it was 0.12 µM. Moreover, the EC50 was 9.12 µM in [14], 0.019 µM in data set [16] and 0.011 µM in data set [17]. Further, in data set [3], the selectivity ratio is 22800. In addition, the “Ratio EC50” value in [4] worked out at 11; in [7] it was 76; in data set [10], 4; in data set [11] it was 124; in data set [13] it was 38; in [15], 4. Also, the “Ratio EC50” value in data set [18] came out at 2. For the same compound, in data set [24], the CC50 at 120 h was above 125 µM.
